Assay [1] has as its target T1, Farnesyl pyrophosphate synthase (Homo sapiens) (UniProt P14324).
T1 sequence (whole entry): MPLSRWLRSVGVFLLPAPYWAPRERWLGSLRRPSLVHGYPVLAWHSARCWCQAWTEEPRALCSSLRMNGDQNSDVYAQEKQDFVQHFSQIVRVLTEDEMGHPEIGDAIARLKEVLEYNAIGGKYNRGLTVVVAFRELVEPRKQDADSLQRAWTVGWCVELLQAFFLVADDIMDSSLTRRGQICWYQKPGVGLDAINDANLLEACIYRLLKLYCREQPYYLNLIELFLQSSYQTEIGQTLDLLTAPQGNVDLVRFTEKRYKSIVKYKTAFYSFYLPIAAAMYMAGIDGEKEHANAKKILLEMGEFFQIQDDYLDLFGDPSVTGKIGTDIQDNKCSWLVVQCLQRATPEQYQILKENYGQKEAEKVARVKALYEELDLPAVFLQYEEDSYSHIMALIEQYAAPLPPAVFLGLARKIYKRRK
Nature of the assay: Inhibition of human recombinant N-terminal His6-tagged FPPS transfected in Escherichia coli BL21 (DE3) cells using GPP and [3H]-IPP as substrate at 10 uM incubated for 10 mins prior to substrate addition measured after 20 mins by liquid scintillation counting analysis. Format: biochemical.

For assay [2], the target named is T2, Farnesyl pyrophosphate synthase (Homo sapiens, UniProt P14324).
T2 sequence (P14324 whole entry): T1 sequence (whole entry)
Briefly: Inhibition of human recombinant N-terminal His6-tagged FPPS transfected in Escherichia coli BL21 (DE3) cells using GPP and [3H]-IPP as substrate incubated for 10 mins prior to substrate addition measured after 20 mins by liquid scintillation counting analysis.

The target of assay [3] is T2, Farnesyl pyrophosphate synthase. Briefly: Inhibition of human FPPS.

Regarding `O=P(O)(O)C(Nc1nc(-c2ccccc2)nc2sccc12)P(=O)(O)O`, the inhibition in assay [1] was found to be 75%.
Regarding `O=P(O)(O)C(Nc1ncnc2sccc12)P(=O)(O)O`, in assay [1], the inhibition was found to be 75%.
The same measure, in the same setting: then `O=P(O)(O)C(Nc1ncnc2scc(-c3ccccc3)c12)P(=O)(O)O`, with below 20%.
Regarding `O=P(O)(O)C(Nc1ncnc2sc(-c3ccc4ccccc4c3)cc12)P(=O)(O)O`, in assay [2], the IC50 is 0.25 µM.
In the case of `CC(C)=CCC/C(C)=C/CC(C/C=C(\C)CCC=C(C)C)(P(=O)(O)O)P(=O)(O)O` [DIGERANYL BISPHOSPHONATE], in assay [3], the IC50 was above 10 µM.
As to `Cc1ccc(-c2cc3c(NC(P(=O)(O)O)P(=O)(O)O)ncnc3s2)cc1`, in assay [2], the IC50 turned out to be 0.39 µM.
As for `O=P(O)(O)C(Nc1ncnc2sc(-c3ccccc3)cc12)P(=O)(O)O`, the inhibition in assay [1] is 75%.

One may read the inhibition as the percentage by which the read-out fell short of the control. The IC50 is the concentration that gives 50% inhibition.

These data come from ChEMBL document CHEMBL2346614, “Discovery of thienopyrimidine-based inhibitors of the human farnesyl pyrophosphate synthase--parallel synthesis of analogs via a trimethylsilyl ylidene intermediate” (Bioorg Med Chem, 2013).
